Converted amounts (≈) assume the structure as drawn. Like-named read-outs stand apart in the source and are kept apart here.
Experiments:
[1] = system: HepG 2.2.15 (2.2.15) cells; assay: IC-90 values used for the combostat dilutions (unpublished observation / literature); format: cell-based; conditions: Hepatitis B virus, HepG2.2.15, T. Block and G. Jacob
Description: The anti-hepatitis B virus effect of […] (3TC) alone and in combination with N-nonyl-DNJ was determined according to Korba ((1996) Antiviral Research 29(1):49-51), using the "combostat" strategy (Comstat Program, Combostat Corp., Duluth, MN). The combostat method involves serially diluting the IC-90 of each compound. The IC-90 of N-nonyl-DNJ has been determined to be between 4 and 10 µg/ml (T. Block and G. Jacob, unpublished observation). The accepted IC-90 for 3TC in HepG 2.2.15 (2.2.15) cells is 300nM to 500nM (Doong et al. (1991) Proc. Natl. Acad. Sci. USA 88:8495-8499).

HBV DNA = assay: Cell culture experiments with N-nonyl-DNJ: total HBV DNA and immune precipitated DNA; format: cell-based
Source text: (§1) There are two measures of drug efficacy: reduction in total HBV DNA (measured by quantitative PCR), and reduction in HBV DNA from capsids with intact surface glycoproteins, which is the active form of the virus (measured by an ELISA-like immune precipitation assay followed by quantitative PCR).

[2] = system: woodchuck hepatitis virus (WHV); assay: Monotherapy in woodchuck model, BID oral dosing for 4 weeks; format: in vivo
Description: Therefore, five groups of four animals each (all groups had both sexes, all but the control had two of each sex) were assigned to 0, 12.5, 25, 50, and 100 mg/kg/day with BID oral dosing. These were lab-reared wild animals. All animals were infected with woodchuck hepatitis virus (WHV) as neonates, and had been tested positive on serological tests for WHV surface antigen. Blood samples were drawn one week prior to dosing (-1 week), immediately before dosing (0 weeks), weekly during dosing (1, 2, 3, and 4 weeks), and after the end of dosing (5, 6, 8, and 10 weeks).
as §1
Before models are fitted to the data, a log transform was applied because: 1) the variation in IPDNA increases with increasing IPDNA values; the log transformation gives values with a nearly constant variation, and 2) it is expected that drug effects will appear as a constant multiplier of the IPDNA level. Because there are zero values of IPDNA, a small value (about 1/2 of the smallest non-zero value) was added to all values before the log transform.
Two approaches were used to model the changes in slope to week with dose of N-nonyl-DNJ: a linear modeling approach and a nonlinear model. Both approaches assume that the (linear) rate of change of the Log(IPDNA) measure over the dosing period is the "right" measure to reflect the effect of the drug on the virus. Both approaches are fit in stages, and the first stage is common to both approaches. First, a simple straight line regression model is fit using weeks 0-4 to predict log(IPDNA_+_10) separately for each animal by run combination. In the second stage, the response variable is the slope fitted in the first stage.
For the linear approach, a model is fit with slope to week as the response where run is considered a block, dose has a significant effect (almost all of this effect is due to a slope to dose), and the relevant error for testing the effect of dose is the variation among animals treated alike (after the adjustment for the runs as blocks). This is similar to using the calibration data within each run to first adjust each run's data to a common virus DNA concentration; the difference is that here the data from the woodchucks are used for the run adjustment rather than only the calibration data.
For the nonlinear approach, a four parameter logistic model is fit with the slope to week as the response and the dose as the predictor. […]

HepG2.2.15 cells = assay: Cell viability by trypan blue exclusion; format: cell-based; conditions: 3 days, cells excluding trypan blue
Hepatitis B Virus = assay: HBV secretion from chronically HBV secreting HepG2.2.15 cells (preS1 immunoprecipitation of virions, PCR); format: cell-based; conditions: for Relative amount of HBV secreted as a % of Control: 3 days, control = 100
Description: (§2) The anti-hepatitis B virus activity and effect on cell viability of a number of different N-substituted-1,5-dideoxy-1,5-imino-D-glucitol compounds were assessed using an in vitro assay employing chronically hepatitis B virus secreting HepG2.2.15 cells. The method employed was essentially that described in Block et al. (1994) Proc. Natl. Acad. Sci. USA 91:2235-2239.

[3] = Cell viability by trypan blue exclusion; format: cell-based; conditions: human, hepg2.2.15 cells, 3 days, cells excluding trypan blue, read-out: % Viable +/-1 S.D.
[4] = MTT-based colorimetric cell viability assay; conditions: human, hepg2.2.15 cells; read-out: [] for a 50% reduction in MMT
Description: as §2
• 1: N-(n-nonyl)-1,5-dideoxy-1,5-imino-D-glucitol • 2: N-(n-butyl)-1,5-dideoxy-1,5-imino-D-glucitol, diacetate • 3: 1,5-dideoxy-1,5-imino-D-glucitol, tetracetate • 4: N,O-(1,6-carbonyl)-1,5-dideoxy-1,5-imino-D-glucitol • 5: N-(n-butyl)-2,3-dimethoxy-1,5-dideoxy-1,5-imino-D-glucitol • 6: N-(n-hexyl)-4,6-benzylidine-1,5-dideoxy-1,5-imino-D-glucitol • 7: N-(n-butyl)-3-methoxy-1,5-dideoxy-1,5-imino-D-glucitol • 8: N-(4,4,4-triflourobutyl)-2,3-dimethoxy-1,5-dideoxy-1,5-imino-D-glucitol, tetracetate • 9: N,O-(1,6-methylenecarbonyl)-1,5-dideoxy-1,5-irriino-D-glucitol • 10: N-(8,8,8-triflourooctyl)-1,5-dideoxy-1,5-imino-D-glucitol MMT: 3-(4,5-dimethylthiazol-2-yl)-2,5-diphenyltetrazolium bromide. The MTT-based colorimetric assay is a measurement of cell viability (Heo et al. (1990) Cancer Research 50:3681-3690).

[5] = concentration [200] (unit not given)
[6] = concentration [1000] (unit not given)

CCCCCCCCCN1C[C@H](O)[C@@H](O)[C@H](O)[C@H]1CO [Compound 1 (Table 3), N-(n-nonyl)-1,5-dideoxy-1,5-imino-D-glucitol]
IC90 [1]: 4 to 10 µg/mL
effect on immune precipitated DNA (IPDNA) (HBV DNA): marked effect
effect on total HBV DNA (HBV DNA): little or no effect
decrease of IPDNA at the minimum slope ([2]; corresponds to the average minimum slope): about 25 %/week
average minimum slope observed ([2]; printed as 'fewer' (a decrease), weeks 0-4): 0.31 Log(IPDNA g/mL)/week
effect on total HBV DNA measurements ([2]; quantitative PCR, all dose levels, pre-dose and dosed portions of the study): no effect
IPDNA levels over the dosing period ([2]; weeks 0-4, immune precipitation followed by quantitative PCR): high dose animals tended to have decreasing levels of IPDNA

1,5-(butylimino)-1,5-dideoxy-D-glucitol, tetraacetate [Example 2]
% Viable +/-1 S.D. (HepG2.2.15 cells; [5]): 90 +/-6 (n=4) %
% Viable +/-1 S.D. (HepG2.2.15 cells; [6]): 89 +/-4 (n=4) %
Relative amount of HBV secreted as a % of Control (Hepatitis B Virus; [5]): 107.0 +/-12 (n=3) %
Relative amount of HBV secreted as a % of Control (Hepatitis B Virus; [6]): 38.0 +/-15 (n=3) %
[ ] for 90% HBV secretion inhibition (Hepatitis B Virus; duplicate PCR results, * lowest concentration tested, ** no inhibition at the highest concentration used (200 microgs/ml)): >200*s* microgs per ml

CCCCN1C[C@H](O)[C@@H](O)[C@H](O)[C@H]1CO [NBDNJ, N-(n-butyl-)-1,5-dideoxy-1,5-imino-D-glucitol]
viability at 72 h ([3]; concentration [200] (unit inferred)): 94 ± 6%
viability at 72 h ([3]; concentration [1000] (unit inferred)): 87 ± 3%
% Viable +/-1 S.D. (HepG2.2.15 cells; concentration [200] (unit not given), listed as 1, 4320 min): 90 +/-2 (n=4) %
IC90 (Hepatitis B Virus; Hepatitis B virus, HepG2.2.15, duplicate PCR results, * lowest concentration tested, ** no inhibition at the highest concentration used (200 microgs/ml), read-out: [ ] for 90% HBV secretion inhibition): 0.5 to 1 µg/mL (≈ 2.28 to 4.56 µM)
Relative amount of HBV secreted as a % of Control (Hepatitis B Virus; [5]): 37.0 +/-13 (n=15) %
Relative amount of HBV secreted as a % of Control (Hepatitis B Virus; [6]): 3.2 +/-5 (n=15) %
CC50 [4]: 100 to 200 µg/mL (≈ 456 to 912 µM)
